Legend:
[1] = target: FXa (Homo sapiens, UniProt P00742); assay: Related protease inhibition: FXa, fluorogenic substrate; type: biochemical; details: fluorogenic substrate at Km, 25° C.; H1-H3 = % activity at 40 μM
Protocol: Human serine protease enzyme Plasma Kallikrein, KLK1, FXa, Plasmin, Thrombin and Trypsin were assayed for enzymatic activity using an appropriate fluorogenic substrate at Km concentration, FXIa at fixed substrate concentration of 100 μM and various concentrations of the test compound.

[2] = target: T1, Human Factor XIIa (hFXIIa) (Homo sapiens, UniProt P00748); assay: Determination of Human Factor XIIa (hFXIIa) inhibition, fluorogenic substrate IC50 assay; type: biochemical; details: fluorogenic substrate H-DPro-Phe-Arg-AFC at Km, 25° C., read-out: Human FXIIa IC50
T1 construct: purchased Enzyme Research Laboratories
T1 sequence (P00748 373-615 limits assumed): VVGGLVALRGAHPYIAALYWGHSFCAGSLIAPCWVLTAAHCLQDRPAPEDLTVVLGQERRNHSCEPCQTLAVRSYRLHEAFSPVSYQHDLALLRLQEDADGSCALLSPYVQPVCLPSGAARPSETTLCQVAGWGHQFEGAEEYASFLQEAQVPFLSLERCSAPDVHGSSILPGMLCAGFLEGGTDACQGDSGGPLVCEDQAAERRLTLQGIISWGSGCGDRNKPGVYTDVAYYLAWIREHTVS
T1 sequence (P00748 20-372 partner limits assumed): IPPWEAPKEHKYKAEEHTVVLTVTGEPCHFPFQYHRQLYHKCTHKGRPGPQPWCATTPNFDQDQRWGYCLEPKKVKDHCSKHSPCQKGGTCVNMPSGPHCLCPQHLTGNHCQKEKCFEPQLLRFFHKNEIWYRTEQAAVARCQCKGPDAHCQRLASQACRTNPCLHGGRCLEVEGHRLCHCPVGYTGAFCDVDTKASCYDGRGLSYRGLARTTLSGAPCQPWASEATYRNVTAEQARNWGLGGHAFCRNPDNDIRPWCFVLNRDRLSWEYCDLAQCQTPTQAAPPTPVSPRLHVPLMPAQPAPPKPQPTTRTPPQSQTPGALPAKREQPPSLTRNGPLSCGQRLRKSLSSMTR
Protocol: Determination of Human Factor XIIa (hFXIIa) inhibition
The Km for the cleavage of the substrate by hFXIIa was determined by standard transformation of the Michaelis-Menten equation, with subsequent inhibition assays performed at substrate Km concentration.

Sequence of FXa (P00742 235-488 limits assumed): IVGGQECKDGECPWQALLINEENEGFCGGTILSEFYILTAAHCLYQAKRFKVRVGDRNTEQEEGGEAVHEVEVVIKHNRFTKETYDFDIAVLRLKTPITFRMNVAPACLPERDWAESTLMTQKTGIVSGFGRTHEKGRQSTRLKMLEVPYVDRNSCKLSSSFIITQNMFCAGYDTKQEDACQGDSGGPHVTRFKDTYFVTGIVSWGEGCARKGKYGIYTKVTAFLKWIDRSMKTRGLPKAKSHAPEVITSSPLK
Sequence of FXa (P00742 41-179 partner limits assumed): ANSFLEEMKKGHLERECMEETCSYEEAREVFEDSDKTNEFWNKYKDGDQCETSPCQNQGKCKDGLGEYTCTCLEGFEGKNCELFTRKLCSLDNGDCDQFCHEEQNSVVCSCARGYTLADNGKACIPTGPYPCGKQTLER

SMILES	IC50 [1] [µM]	IC50 [2] [µM]
Cc1nc2c(C(=O)NCC3CC3)nn(-c3cccc(Cl)c3)c2c(=O)n1-c1ccc2c(c1)CN(C)CC2 [Example 3004, 1-(3-chlorophenyl)-N-(cyclopropylmethyl)-5-methyl-6-(2-methyl-1,2,3,4-tetrahydroisoquinolin-7-yl)-7-oxo-6,7-dihydro-1H-pyrazolo[4,3-d]pyrimidine-3-carboxamide]	3 to 10	0.1 to 0.3
COc1ccc(CNC(=O)c2nn(-c3cccc(Cl)c3)c3c2CCN(c2ccc4c(c2)CN(CCO)CC4)C3=O)cn1 [Example 1138, 1-(3-chlorophenyl)-6-(2-(2-hydroxyethyl)-1,2,3,4-tetrahydroisoquinolin-7-yl)-N-((6-methoxypyridin-3-yl)methyl)-7-oxo-4,5,6,7-tetrahydro-1H-pyrazolo[3,4-c]pyridine-3-carboxamide]	3 to 10	0.01 to 0.1
CC(C)N1CCc2ccc(N3CCc4c(C(=O)NCc5ccccc5)nn(-c5cccc(Cl)c5)c4C3=O)cc2C1 [Example 1022, N-benzyl-1-(3-chlorophenyl)-6-(2-isopropyl-1,2,3,4-tetrahydroisoquinolin-7-yl)-7-oxo-4,5,6,7-tetrahydro-1H-pyrazolo[3,4-c]pyridine-3-carboxamide]	3 to 10	0.01 to 0.1
CCN1CCc2ccc(N3CCc4c(C(=O)NCc5ccccc5)nn(-c5cccc(Cl)c5)c4C3=O)cc2C1 [Example 1021, N-benzyl-1-(3-chlorophenyl)-6-(2-ethyl-1,2,3,4-tetrahydroisoquinolin-7-yl)-7-oxo-4,5,6,7-tetrahydro-1H-pyrazolo[3,4-c]pyridine-3-carboxamide]	3 to 10	0.01 to 0.1
Cc1cc(CNC(=O)c2nn(-c3cccc(Cl)c3)c3c2CCN(c2ccc4c(c2)N(C)C(=O)CC4)C3=O)nn1C [Example 1208, 1-(3-chlorophenyl)-N-((1,5-dimethyl-1H-pyrazol-3-yl)methyl)-6-(1-methyl-2-oxo-1,2,3,4-tetrahydroquinolin-7-yl)-7-oxo-4,5,6,7-tetrahydro-1H-pyrazolo[3,4-c]pyridine-3-carboxamide]	10 to 40	1 to 3
COCc1cc(CNC(=O)c2nn(-c3cccc(Cl)c3)c3c2CCN(c2ccc4c(c2)CN(CCO)CC4)C3=O)[nH]n1 [Example 1156, 1-(3-chlorophenyl)-6-(2-(2-hydroxyethyl)-1,2,3,4-tetrahydroisoquinolin-7-yl)-N-((3-(methoxymethyl)-1H-pyrazol-5-yl)methyl)-7-oxo-4,5,6,7-tetrahydro-1H-pyrazolo[3,4-c]pyridine-3-carboxamide]	10 to 40	0.1 to 0.3
CCN1CCOc2ccc(N3CCc4c(C(=O)NCc5cc(C)n(C)n5)nn(-c5cccc(Cl)c5)c4C3=O)cc2C1=O [Example 1317, 1-(3-chlorophenyl)-N-((1,5-dimethyl-1H-pyrazol-3-yl)methyl)-6-(4-ethyl-5-oxo-2,3,4,5-tetrahydrobenzo[f][1,4]oxazepin-7-yl)-7-oxo-4,5,6,7-tetrahydro-1H-pyrazolo[3,4-c]pyridine-3-carboxamide]	3 to 10	0.01 to 0.1
O=C(NCC1CC1)c1nn(-c2cccc(Cl)c2)c2c1CCN(c1ccc3c(c1)CN(CC1CC1)CC3)C2=O [Example 1036, 1-(3-chlorophenyl)-N-(cyclopropylmethyl)-6-(2-(cyclopropylmethyl)-1,2,3,4-tetrahydroisoquinolin-7-yl)-7-oxo-4,5,6,7-tetrahydro-1H-pyrazolo[3,4-c]pyridine-3-carboxamide]	> 40	0.3 to 1
Cc1ccncc1CNC(=O)c1nn(-c2cccc(Cl)c2)c2c(=O)n(-c3ccc4c(c3)CN(CCO)CC4)c(C)nc12 [Example 3011, 1-(3-chlorophenyl)-6-(2-(2-hydroxyethyl)-1,2,3,4-tetrahydroisoquinolin-7-yl)-5-methyl-N-((4-methylpyridin-3-yl)methyl)-7-oxo-6,7-dihydro-1H-pyrazolo[4,3-d]pyrimidine-3-carboxamide]	10 to 40	0.01 to 0.1
CCN1CCc2cc(F)c(N3CCc4c(C(=O)NCc5cc(C6CC6)n[nH]5)nn(-c5cccc(Cl)c5)c4C3=O)cc2C1 [Example 1234, 1-(3-chlorophenyl)-N-((3-cyclopropyl-1H-pyrazol-5-yl)methyl)-6-(2-ethyl-6-fluoro-1,2,3,4-tetrahydroisoquinolin-7-yl)-7-oxo-4,5,6,7-tetrahydro-1H-pyrazolo[3,4-c]pyridine-3-carboxamide]	3 to 10	0.01 to 0.1

Further lines, results first:

IC50 [1] [µM]	IC50 [2] [µM]	SMILES
3 to 10	1 to 3	CN1CCc2ccc(N3CCc4c(CNS(C)(=O)=O)nn(-c5cccc(Cl)c5)c4C3=O)cc2C1=O [Example 1403, N-((1-(3-chlorophenyl)-6-(2-methyl-1-oxo-1,2,3,4-tetrahydroisoquinolin-7-yl)-7-oxo-4,5,6,7-tetrahydro-1H-pyrazolo[3,4-c]pyridin-3-yl)methyl)methanesulfonamide]
> 40	0.3 to 1	CN1CCc2ccc(N3CCc4c(C(=O)NCCO)nn(-c5cccc(Cl)c5)c4C3=O)cc2C1=O [Example 1340, 1-(3-chlorophenyl)-N-(2-hydroxyethyl)-6-(2-methyl-1-oxo-1,2,3,4-tetrahydroisoquinolin-7-yl)-7-oxo-4,5,6,7-tetrahydro-1H-pyrazolo[3,4-c]pyridine-3-carboxamide]
3 to 10	0.01 to 0.1	O=C(NCc1cccnc1)c1nn(-c2cccc(Cl)c2)c2c1CCN(c1ccc3c(c1)CN(CCO)CC3)C2=O [Example 1078, 1-(3-chlorophenyl)-6-(2-(2-hydroxyethyl)-1,2,3,4-tetrahydroisoquinolin-7-yl)-7-oxo-N-(pyridin-3-ylmethyl)-4,5,6,7-tetrahydro-1H-pyrazolo[3,4-c]pyridine-3-carboxamide]
> 40	0.3 to 1	Cc1cnccc1CNC(=O)c1nn(-c2cccc(Cl)c2)c2c1CCN(c1ccc3c(c1)C(=O)N(CCO)CC3)C2=O [Example 1357, 1-(3-chlorophenyl)-6-(2-(2-hydroxyethyl)-1-oxo-1,2,3,4-tetrahydroisoquinolin-7-yl)-N-((3-methylpyridin-4-yl)methyl)-7-oxo-4,5,6,7-tetrahydro-1H-pyrazolo[3,4-c]pyridine-3-carboxamide]
10 to 40	0.1 to 0.3	Cc1cc(CNC(=O)c2nn(-c3cccc(Cl)c3)c3c2CCN(c2ccc4c(c2)C(=O)N(C)CC4)C3=O)nn1C [Example 1199, 1-(3-chlorophenyl)-N-((1,5-dimethyl-1H-pyrazol-3-yl)methyl)-6-(2-methyl-1-oxo-1,2,3,4-tetrahydroisoquinolin-7-yl)-7-oxo-4,5,6,7-tetrahydro-1H-pyrazolo[3,4-c]pyridine-3-carboxamide]
> 40	0.3 to 1	CN1CCc2ccc(N3CCc4c(C(=O)NCC5(CO)CC5)nn(-c5cccc(Cl)c5)c4C3=O)cc2C1=O [Example 1250, 1-(3-chlorophenyl)-N-((1-(hydroxymethyl)cyclopropyl)methyl)-6-(2-methyl-1-oxo-1,2,3,4-tetrahydroisoquinolin-7-yl)-7-oxo-4,5,6,7-tetrahydro-1H-pyrazolo[3,4-c]pyridine-3-carboxamide]
> 40	10 to 40	Cc1cc(CNC(=O)c2nn(-c3cccc(Cl)c3)c3c2CCN(c2ccc4c(c2)CCN(C)C4=O)C3=O)nn1C [Example 1205, 1-(3-chlorophenyl)-N-((1,5-dimethyl-1H-pyrazol-3-yl)methyl)-6-(2-methyl-1-oxo-1,2,3,4-tetrahydroisoquinolin-6-yl)-7-oxo-4,5,6,7-tetrahydro-1H-pyrazolo[3,4-c]pyridine-3-carboxamide]
> 40	0.1 to 0.3	O=C(NCC1CC1(F)F)c1nn(-c2cccc(Cl)c2)c2c1CCN(c1ccc3c(c1)CN(CCO)CC3)C2=O (stereo not shown) [Example 1142, 1-(3-chlorophenyl)-N-((2,2-difluorocyclopropyl)methyl)-6-(2-(2-hydroxyethyl)-1,2,3,4-tetrahydroisoquinolin-7-yl)-7-oxo-4,5,6,7-tetrahydro-1H-pyrazolo[3,4-c]pyridine-3-carboxamide]
3 to 10	0.01 to 0.1	CN1CCc2ccc(N3CCc4c(C(=O)NCc5ccccc5)nn(-c5cccc(Cl)c5)c4C3=O)cc2C1 [Example 1005, N-benzyl-1-(3-chlorophenyl)-6-(2-methyl-1,2,3,4-tetrahydroisoquinolin-7-yl)-7-oxo-4,5,6,7-tetrahydro-1H-pyrazolo[3,4-c]pyridine-3-carboxamide]
10 to 40	0.01 to 0.1	Cc1cc(CNC(=O)c2nn(-c3cccc(Cl)c3)c3c2CCN(c2ccc4c(c2)C(=O)N(CCF)CC4)C3=O)nn1C [Example 1254, 1-(3-chlorophenyl)-N-((1,5-dimethyl-1H-pyrazol-3-yl)methyl)-6-(2-(2-fluoroethyl)-1-oxo-1,2,3,4-tetrahydroisoquinolin-7-yl)-7-oxo-4,5,6,7-tetrahydro-1H-pyrazolo[3,4-c]pyridine-3-carboxamide]
